As a reminder, the IC50 is the concentration needed to halve the response being measured.

In one data set the test system is CYP1A2. Details: method as in earlier work. Conditions: weak inhibition; ref IB; cited from earlier work.
Data set [1] in a line: Pharmacokinetics alone and in combination, selumetinib + temsirolimus arm. The data set is classed as in vivo, human. Conditions: for AUC(0–8) / AUC(0–12) / Cmax: geometric mean (% CV); for tmax: median (range).
Protocol: (§1) PK parameters were derived using non-compartmental analysis. Cmax and tmax were determined by visual inspection of the plasma concentration-time profiles. AUC(0–12) was calculated by the linear trapezoidal rule. Where more than one maximum occurred, the reported value was assigned to the first occurrence.
Data set [2] can be described thus: Pharmacokinetics alone and in combination, selumetinib + erlotinib arm. The settings on record: for tmax: median (range).
Protocol: as §1
A further data set deals with cell viability. More on the design: method as in earlier work. The settings on record: more active than parent; ref IB; cited from earlier work.
Another data set relates to ERK phosphorylation. Details: method as in earlier work. Conditions: cultured cells; more active than parent; ref IB; cited from earlier work.
The conditions of data set [3]: ref Study ARRY-0401, cited from earlier work.
For a further data set, the system named is tumor pERK. More on the design: method as in Study ARRY-0401. Conditions: 100 mg BD, Day 15 compared with pre-dose; 90% CI 50% to 93%; ref Study ARRY-0401; cited from earlier work.
On the set-up of data set [4]: method as in earlier work. The settings on record: daily oral administration in SBE-CD for 1 month, rats; ref IB; cited from earlier work.
On the set-up of data set [5]: method as in earlier work. Conditions: cynomolgus monkeys dosed for up to one month; ref IB; cited from earlier work.
Another data set concerns Ki67. More on the design: method as in Study ARRY-0401. The settings on record: 100 mg BD; ref Study ARRY-0401; cited from earlier work.
On the set-up of data set [6]: method as in earlier work. The settings on record: ref IB; cited from earlier work.
The conditions of data set [7]: ref product label, cited from earlier work.
On the set-up of data set [8]: method as in product label. The settings on record: ref product label, cited from earlier work.
In data set [9] the test system is HCT-116 human colorectal cancer xenograft. Details: method as in earlier work. Conditions: AZD6244 25 m/kg BD; docetaxel 15 mg/kg once weekly; ref IB; cited from earlier work.
For data set [10], the system named is SW620 human colorectal cancer xenograft. Details: method as in earlier work. The settings on record: AZD6244 25 mg/kg BD; irinotecan 25 mg/kg once weekly; docetaxel 15 mg/kg once weekly; ref IB; cited from earlier work.
Setting [11] is: dosed alone, selumetinib 50 mg cohort (N = 25), temsirolimus 25 mg IV.
The mark [12] stands for this setting: dosed alone, selumetinib 75 mg cohort (N = 6), temsirolimus 25 mg IV.
[13] abbreviates: dosed in combination, selumetinib 50 mg BID (N = 22) + temsirolimus 25 mg IV.
Setting [14] is: dosed in combination, selumetinib 75 mg BID (N = 5) + temsirolimus 25 mg IV.
[15] abbreviates: geometric mean (% CV), dosed alone, selumetinib 50 mg cohort (N = 14), erlotinib 100 mg QD.
Setting [16] is: geometric mean (% CV), dosed alone, selumetinib 75 mg cohort (N = 6), erlotinib 100 mg QD.
Where [17] appears, read: geometric mean (% CV), dosed in combination, selumetinib 50 mg BID (N = 12) + erlotinib 100 mg QD.
[18] abbreviates: geometric mean (% CV), dosed in combination, selumetinib 75 mg BID (N = 6) + erlotinib 100 mg QD.
Where [19] appears, read: geometric mean, QD cohorts, dosed alone, selumetinib 50 mg cohort (N = 7), erlotinib 100 mg QD.
[20] abbreviates: geometric mean, QD cohorts, dosed alone, selumetinib 100 mg cohort (N = 6), erlotinib 100 mg QD.
[21] abbreviates: geometric mean, QD cohorts, dosed alone, selumetinib 150 mg cohort (N = 13), erlotinib 100 mg QD.
Setting [22] is: geometric mean, QD cohorts, in combination, selumetinib 50 mg (N = 6) + erlotinib 100 mg QD.
Setting [23] is: geometric mean, QD cohorts, in combination, selumetinib 100 mg (N = 6) + erlotinib 100 mg QD.
Where [24] appears, read: geometric mean, QD cohorts, in combination, selumetinib 150 mg (N = 12) + erlotinib 100 mg QD.

`O=C(NOCCO)c1cc2nc[nH]c2c(F)c1Nc1ccc(Br)cc1Cl` [N-desmethyl selumetinib]: the IC50 in the data set with CYP1A2 was 18.9 µM. Moreover, the “AUC(0–8)” value in data set [1] (setting [11]) is 124.3 (80.50) ng•h/mL; in [1] (setting [12]), 231.1 (68.07) ng•h/mL; in [1] (setting [13]), 129.4 (59.96) ng•h/mL; in [1] (setting [14]), 167.8 (51.40) ng•h/mL; in data set [2] (setting [15]) it was 141.3 (41.79) [13] ng•h/mL; in data set [2] (setting [16]), 195.9 (36.04) ng•h/mL. In addition, the “AUC(0–8)” value in data set [2] (setting [17]) is 130.4 (39.09) ng•h/mL; in [2] (setting [18]), 227.5 (57.77) ng•h/mL; in data set [2] (setting [19]), 156 ng·h/mL; in [2] (setting [20]), 347 ng·h/mL; in [2] (setting [21]), 279 ng·h/mL; in data set [2] (setting [22]), 149 ng·h/mL. Further, the “AUC(0–8)” value was determined as 404 ng·h/mL in data set [2] (setting [23]) and 286 ng·h/mL in data set [2] (setting [24]). The “AUC(0–12)” value in data set [1] (setting [11]) was 168.2 (54.21) [23] ng•h/mL; in data set [1] (setting [12]), 269.4 (62.60) ng•h/mL; in data set [1] (setting [13]) it was 168.2 (57.86) [14] ng•h/mL; in [1] (setting [14]) it was 190.5 (55.06) [4] ng•h/mL; in data set [2] (setting [15]), 173.4 (39.75) [12] ng•h/mL; in data set [2] (setting [16]), 223.9 (34.90) ng•h/mL. Further, the “AUC(0–12)” value was 153.3 (39.37) ng•h/mL in data set [2] (setting [17]); 262.7 (53.29) ng•h/mL in data set [2] (setting [18]); 181 ng·h/mL in [2] (setting [19]); 401 ng·h/mL in [2] (setting [20]); 331 ng·h/mL in data set [2] (setting [21]); 181 ng·h/mL in [2] (setting [22]). In addition, the figures for the “AUC(0–12)” value in data set [2] (setting [23]) and in data set [2] (setting [24]) were 454 ng·h/mL and 344 ng·h/mL, respectively. For the same compound, the Cmax in data set [1] (setting [11]) is given as 35.28 (109.00) ng/mL; in data set [1] (setting [12]) it was 75.34 (88.64) ng/mL; in data set [1] (setting [13]) it was 38.51 (81.60) ng/mL; in [1] (setting [14]) it was 48.36 (65.63) ng/mL; in [2] (setting [15]), 41.69 (60.64) ng/mL; in [2] (setting [16]) it was 66.80 (75.74) ng/mL. In addition, the Cmax is 43.37 (47.62) ng/mL in [2] (setting [17]); 72.94 (91.01) ng/mL in data set [2] (setting [18]); 45.6 ng/mL in [2] (setting [19]); 109 ng/mL in data set [2] (setting [20]); 79.6 ng/mL in data set [2] (setting [21]); 44.5 ng/mL in data set [2] (setting [22]). For the same compound, the Cmax worked out at 129 ng/mL in data set [2] (setting [23]) and 68.3 ng/mL in data set [2] (setting [24]). The tmax in [1] (setting [11]) was 1.5 (1.0–8.0) h; in data set [1] (setting [12]), 1.5 (1.0–4.0) h; in data set [1] (setting [13]), 2.0 (1.0–2.0) h; in data set [1] (setting [14]), 2.0 (1.0–2.0) h; in data set [2] (QD cohorts, dosed alone, selumetinib 50 mg cohort (N = 7), erlotinib 100 mg QD), 1.50 (1.00–4.00) h; in [2] (QD cohorts, dosed alone, selumetinib 100 mg cohort (N = 6), erlotinib 100 mg QD), 1.50 (1.50–4.00) h. Also, the tmax in [2] (QD cohorts, dosed alone, selumetinib 150 mg cohort (N = 13), erlotinib 100 mg QD) is recorded as 1.50 (1.00–8.00) h; in [2] (QD cohorts, in combination, selumetinib 50 mg (N = 6) + erlotinib 100 mg QD), 1.50 (1.50–8.00) h; in [2] (QD cohorts, in combination, selumetinib 100 mg (N = 6) + erlotinib 100 mg QD) it was 1.50 (1.00–2.00) h; in data set [2] (QD cohorts, in combination, selumetinib 150 mg (N = 12) + erlotinib 100 mg QD), 2.00 (1.00–4.00) h; in data set [2] (dosed alone, selumetinib 50 mg cohort (N = 14), erlotinib 100 mg QD), 1.5 (1.0–12.0) h; in data set [2] (dosed alone, selumetinib 75 mg cohort (N = 6), erlotinib 100 mg QD) it was 1.45 (1.0–2.0) h. The tmax in [2] (dosed in combination, selumetinib 50 mg BID (N = 12) + erlotinib 100 mg QD) is 1.25 (1.0–4.0) h; in data set [2] (dosed in combination, selumetinib 75 mg BID (N = 6) + erlotinib 100 mg QD), 1.5 (1.0–2.0) h. For the same compound, the “PK parameters when administered alone and in combination” value in data set [1] (selumetinib + temsirolimus arm) and in data set [2] (selumetinib + erlotinib arm) was “similar” throughout. The “activity relative to AZD6244 parent compound, inhibition of cell viability” value with cell viability is listed as “approximately 5 fold”. Besides, the “activity relative to AZD6244 parent compound, inhibition of ERK phosphorylation” value with ERK phosphorylation was “approximately 3 fold”. The “plasma concentrations/exposure as % of AZD6244 concentrations/exposure” value in data set [3] (Part B of the study) was not above 10%.

For the compound `Cn1cnc2c(F)c(Nc3ccc(Br)cc3Cl)c(C(=O)NOCCO)cc21` [AZD6244 free-base], in the data set with tumor pERK, the “inhibition of tumor pERK, geometric mean” value is 81%. Further, in data set [4], the tolerability entry is listed as “well tolerated”; the toxicity findings entry was “soft stools and gastrointestinal mucosal mineralization”. In data set [5], the tissue mineralization entry is recorded as “not apparent”. In the data set on Ki67, the “patients with reduction in Ki67” value is given as 9/20 and the “patients with reduction in Ki67 ≥50% of pre-dose” value is on record as 5 patients. Besides, the solubility entry in [6] is given as “limited solubility”. Also, in data set [3] (RECIST, as of 30 September 2006), the “patients with SD” value is 17 patients. In data set [3] (RECIST), the best overall response entry is reported as “stable disease (SD)” and the “patients with long term (≥5 months) SD” value was 9 patients. In addition, in data set [3] (free-base mix and drink formulation), the MTD is 100 mg BD.

As to `CN(C)/N=N/c1[nH]cnc1C(N)=O` [dacarbazine], the “incidence of hepatic toxicity with hepatic vein thrombosis and hepatocellular necrosis resulting in death” value in data set [7] (patients treated) is listed as “approximately 0.01%”. In addition, in data set [7] (with the initial few doses), the “patients affected by anorexia, nausea, and vomiting” value is on record as “Over 90%”.

For `CC(=O)O[C@@]12CO[C@@H]1C[C@H](O)[C@@]1(C)C(=O)[C@H](O)C3=C(C)[C@@H](OC(=O)[C@H](O)[C@@H](NC(=O)OC(C)(C)C)c4ccccc4)C[C@@](O)([C@@H](OC(=O)c4ccccc4)[C@H]21)C3(C)C` [Docetaxel], the “severe neurosensory symptoms (paresthesia, dysesthesia, pain)” value in data set [8] (53/965 metastatic breast cancer patients) is given as 5.5%. The “treatment discontinuation due to severe neurosensory symptoms” value in data set [8] (metastatic breast cancer patients) is given as 6.1%. Moreover, the “Tumor growth inhibition as a % of control” value in data set [9] is 93.4 % of control; in data set [10], 12 % of control.

Values taken from paper PMC5613062 (Investigational New Drugs, 2017).
